These results are taken from publication PMC12120719, “Targeting Senescence with Apigenin Improves Chemotherapeutic Efficacy and Ameliorates Age‐Related Conditions in Mice” (Advanced Science, 2025).

In this experiment the target is T1, PRDX6 (peroxiredoxin 6) (Homo sapiens, UniProt P30041).
T1 construct: recombinant human PRDX6 (SinoBiological), immobilized on CM5 chip
T1 sequence (P30041 2-224): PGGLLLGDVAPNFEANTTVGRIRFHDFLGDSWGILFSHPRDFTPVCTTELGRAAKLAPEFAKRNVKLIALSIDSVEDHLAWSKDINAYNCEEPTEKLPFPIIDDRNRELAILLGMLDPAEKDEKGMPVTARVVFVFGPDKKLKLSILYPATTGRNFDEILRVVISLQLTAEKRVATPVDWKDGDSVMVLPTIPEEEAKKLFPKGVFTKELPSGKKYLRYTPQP
Nature of the experiment: SPR (Biacore T200); supported by MST (Kd […]), CETSA, DARTS, biotin-probe pulldown. The experiment is classed as binding. On the technique in general: In SPR one partner is held on a chip, and binding of the other changes the refractive index at the surface.

pKd: −log10 of the molar value.

In general, pKd refers to the Kd on a negative log10 scale, so that one unit is a factor of ten. The low end stands for a large Kd, the high end for a small Kd. `O=c1cc(-c2ccc(O)cc2)oc2cc(O)cc(O)c12` [apigenin, 4′,5,7‐trihydroxyflavone] gave a pKd of 6.63.
